Source: ChEMBL document CHEMBL5724806, “Unraveling interindividual differences and functional consequences of gut microbial metabolism of immunosuppressants” (2024)

Key:
Assay type in all cases: ADME
[1] = The drug is tested on the gut metagenome community of A-09 with ENA study accession number: PRJEB31790 for biotransformation under anaerobic condition. The drug concentrations were measured over 7 timepoints collected between 0 and 12 hours of incubation by liquid-chromatography-coupled mass spectrometry (LC–MS); design: dose 5 uM, timepoint 0, 0.75, 1.5, 3, 6, 9, 12 hours; conditions: 5 µM
[2] = The drug is tested on the gut metagenome community of P-03 with ENA study accession number: PRJEB31790 for biotransformation under anaerobic condition. The drug concentrations were measured over 7 timepoints collected between 0 and 12 hours of incubation by liquid-chromatography-coupled mass spectrometry (LC–MS); design: dose 5 uM, timepoint 0, 0.75, 1.5, 3, 6, 9, 12 hours; conditions: 5 µM
[3] = The drug is tested on the gut metagenome community of A-01 with ENA study accession number: PRJEB31790 for biotransformation under microaerobic condition. The drug concentrations were measured over 7 timepoints collected between 0 and 12 hours of incubation by liquid-chromatography-coupled mass spectrometry (LC–MS); design: dose 5 uM, timepoint 0, 0.75, 1.5, 3, 6, 9, 12 hours; conditions: 5 µM
[4] = The drug is tested on the gut metagenome community of T-01 with ENA study accession number: PRJEB31790 for biotransformation under microaerobic condition. The drug concentrations were measured over 7 timepoints collected between 0 and 12 hours of incubation by liquid-chromatography-coupled mass spectrometry (LC–MS); design: dose 5 uM, timepoint 0, 0.75, 1.5, 3, 6, 9, 12 hours; conditions: 5 µM
[5] = The drug is tested on the gut metagenome community of A-10 with ENA study accession number: PRJEB31790 for biotransformation under anaerobic condition. The drug concentrations were measured over 7 timepoints collected between 0 and 12 hours of incubation by liquid-chromatography-coupled mass spectrometry (LC–MS); design: dose 5 uM, timepoint 0, 0.75, 1.5, 3, 6, 9, 12 hours; conditions: 5 µM
[6] = The drug is tested on Gemella morbillorum strain: DSM20572 for biotransformation under anaerobic condition. The drug concentrations were measured over 6 timepoints collected between 0 and 12 hours of incubation by liquid-chromatography-coupled mass spectrometry (LC–MS); design: dose 5 uM, timepoint 0, 1.5, 3, 6, 9, 12 hours; conditions: 5 µM
[7] = The drug is tested on Bifidobacterium longum strain: DSM20088 for biotransformation under microaerobic condition. The drug concentrations were measured over 6 timepoints collected between 0 and 12 hours of incubation by liquid-chromatography-coupled mass spectrometry (LC–MS); design: dose 5 uM, timepoint 0, 1.5, 3, 6, 9, 12 hours; conditions: 5 µM
[8] = The drug is tested on the gut metagenome community of A-10 with ENA study accession number: PRJEB31790 for biotransformation under microaerobic condition. The drug concentrations were measured over 7 timepoints collected between 0 and 12 hours of incubation by liquid-chromatography-coupled mass spectrometry (LC–MS); design: dose 5 uM, timepoint 0, 0.75, 1.5, 3, 6, 9, 12 hours; conditions: 5 µM
[9] = The drug is tested on Prevotella copri strain: DSM18205 for biotransformation under anaerobic condition. The drug concentrations were measured over 6 timepoints collected between 0 and 12 hours of incubation by liquid-chromatography-coupled mass spectrometry (LC–MS); design: dose 5 uM, timepoint 0, 1.5, 3, 6, 9, 12 hours; conditions: segatella copri, 5 µM
[10] = The drug is tested on Gemella haemolysans strain: DSM107751 for biotransformation under anaerobic condition. The drug concentrations were measured over 6 timepoints collected between 0 and 12 hours of incubation by liquid-chromatography-coupled mass spectrometry (LC–MS); design: dose 5 uM, timepoint 0, 1.5, 3, 6, 9, 12 hours; conditions: 5 µM
[11] = The drug is tested on Odoribacter splanchnicus strain: DSM20712 for biotransformation under anaerobic condition. The drug concentrations were measured over 6 timepoints collected between 0 and 12 hours of incubation by liquid-chromatography-coupled mass spectrometry (LC–MS); design: dose 5 uM, timepoint 0, 1.5, 3, 6, 9, 12 hours; conditions: 5 µM
[12] = The drug is tested on Escherichia coli strain: DSM27469 for biotransformation under microaerobic condition. The drug concentrations were measured over 6 timepoints collected between 0 and 12 hours of incubation by liquid-chromatography-coupled mass spectrometry (LC–MS); design: dose 5 uM, timepoint 0, 1.5, 3, 6, 9, 12 hours; conditions: 5 µM
[13] = The drug is tested on Lactobacillus fermentum strain: DSM20052 for biotransformation under microaerobic condition. The drug concentrations were measured over 6 timepoints collected between 0 and 12 hours of incubation by liquid-chromatography-coupled mass spectrometry (LC–MS); design: dose 5 uM, timepoint 0, 1.5, 3, 6, 9, 12 hours; conditions: limosilactobacillus fermentum, 5 µM
[14] = The drug is tested on Bifidobacterium longum strain: DSM20088 for biotransformation under anaerobic condition. The drug concentrations were measured over 6 timepoints collected between 0 and 12 hours of incubation by liquid-chromatography-coupled mass spectrometry (LC–MS); design: dose 5 uM, timepoint 0, 1.5, 3, 6, 9, 12 hours; conditions: 5 µM
[15] = The drug is tested on Parabacteroides distasonis strain: DSM20701 for biotransformation under anaerobic condition. The drug concentrations were measured over 6 timepoints collected between 0 and 12 hours of incubation by liquid-chromatography-coupled mass spectrometry (LC–MS); design: dose 5 uM, timepoint 0, 1.5, 3, 6, 9, 12 hours; conditions: 5 µM
[16] = The drug is tested on Parabacteroides merdae strain: DSM19495 for biotransformation under anaerobic condition. The drug concentrations were measured over 6 timepoints collected between 0 and 12 hours of incubation by liquid-chromatography-coupled mass spectrometry (LC–MS); design: dose 5 uM, timepoint 0, 1.5, 3, 6, 9, 12 hours; conditions: 5 µM
[17] = The drug is tested on the gut metagenome community of T-03 with ENA study accession number: PRJEB31790 for biotransformation under anaerobic condition. The drug concentrations were measured over 7 timepoints collected between 0 and 12 hours of incubation by liquid-chromatography-coupled mass spectrometry (LC–MS); design: dose 5 uM, timepoint 0, 0.75, 1.5, 3, 6, 9, 12 hours; conditions: 5 µM
[18] = The drug is tested on Streptococcus sanguinis strain: DSM20567 for biotransformation under anaerobic condition. The drug concentrations were measured over 6 timepoints collected between 0 and 12 hours of incubation by liquid-chromatography-coupled mass spectrometry (LC–MS); design: dose 5 uM, timepoint 0, 1.5, 3, 6, 9, 12 hours; conditions: 5 µM
[19] = The drug is tested on Bacteroides ovatus strain: ATCC 8483 for biotransformation under anaerobic condition. The drug concentrations were measured over 6 timepoints collected between 0 and 12 hours of incubation by liquid-chromatography-coupled mass spectrometry (LC–MS); design: dose 5 uM, timepoint 0, 1.5, 3, 6, 9, 12 hours; conditions: 5 µM
[20] = The drug is tested on Lactobacillus fermentum strain: DSM20052 for biotransformation under anaerobic condition. The drug concentrations were measured over 6 timepoints collected between 0 and 12 hours of incubation by liquid-chromatography-coupled mass spectrometry (LC–MS); design: dose 5 uM, timepoint 0, 1.5, 3, 6, 9, 12 hours; conditions: limosilactobacillus fermentum, 5 µM
[21] = The drug is tested on Escherichia coli strain: DSM27469 for biotransformation under anaerobic condition. The drug concentrations were measured over 6 timepoints collected between 0 and 12 hours of incubation by liquid-chromatography-coupled mass spectrometry (LC–MS); design: dose 5 uM, timepoint 0, 1.5, 3, 6, 9, 12 hours; conditions: 5 µM
[22] = The drug is tested on the gut metagenome community of A-09 with ENA study accession number: PRJEB31790 for biotransformation under microaerobic condition. The drug concentrations were measured over 7 timepoints collected between 0 and 12 hours of incubation by liquid-chromatography-coupled mass spectrometry (LC–MS); design: dose 5 uM, timepoint 0, 0.75, 1.5, 3, 6, 9, 12 hours; conditions: 5 µM
[23] = The drug is tested on Capnocytophaga ochracea strain: DSM7271 for biotransformation under anaerobic condition. The drug concentrations were measured over 6 timepoints collected between 0 and 12 hours of incubation by liquid-chromatography-coupled mass spectrometry (LC–MS); design: dose 5 uM, timepoint 0, 1.5, 3, 6, 9, 12 hours; conditions: 5 µM
[24] = The drug is tested on the gut metagenome community of A-05 with ENA study accession number: PRJEB31790 for biotransformation under anaerobic condition. The drug concentrations were measured over 7 timepoints collected between 0 and 12 hours of incubation by liquid-chromatography-coupled mass spectrometry (LC–MS); design: dose 5 uM, timepoint 0, 0.75, 1.5, 3, 6, 9, 12 hours; conditions: 5 µM
[25] = The drug is tested on Dorea formicigenerans strain: DSM3992 for biotransformation under anaerobic condition. The drug concentrations were measured over 6 timepoints collected between 0 and 12 hours of incubation by liquid-chromatography-coupled mass spectrometry (LC–MS); design: dose 5 uM, timepoint 0, 1.5, 3, 6, 9, 12 hours; conditions: 5 µM
[26] = The drug is tested on the gut metagenome community of T-02 with ENA study accession number: PRJEB31790 for biotransformation under microaerobic condition. The drug concentrations were measured over 7 timepoints collected between 0 and 12 hours of incubation by liquid-chromatography-coupled mass spectrometry (LC–MS); design: dose 5 uM, timepoint 0, 0.75, 1.5, 3, 6, 9, 12 hours; conditions: 5 µM

| Compound | Bacterial Biotransformation [1] | Bacterial Biotransformation [2] | Bacterial Biotransformation [3] | Bacterial Biotransformation [4] | Bacterial Biotransformation [5] | Bacterial Biotransformation [6] | Bacterial Biotransformation [7] | Bacterial Biotransformation [8] | Bacterial Biotransformation [9] | Bacterial Biotransformation [10] | Bacterial Biotransformation [11] | Bacterial Biotransformation [12] | Bacterial Biotransformation [13] | Bacterial Biotransformation [14] | Bacterial Biotransformation [15] | Bacterial Biotransformation [16] | Bacterial Biotransformation [17] | Bacterial Biotransformation [18] | Bacterial Biotransformation [19] | Bacterial Biotransformation [20] | further results |
| --- | --- | --- | --- | --- | --- | --- | --- | --- | --- | --- | --- | --- | --- | --- | --- | --- | --- | --- | --- | --- | --- |
| C[C@H]1C[C@H]2[C@@H]3CCC4=CC(=O)C=C[C@]4(C)[C@@]3(F)[C@@H](O)C[C@]2(C)[C@@]1(O)C(=O)CO [BETAMETHASONE] | Compound metabolized | Compound metabolized | Compound NOT metabolized | Compound NOT metabolized | Compound NOT metabolized | Compound NOT metabolized | Compound NOT metabolized | Compound NOT metabolized | Compound NOT metabolized | Compound NOT metabolized | Compound NOT metabolized | Compound NOT metabolized | Compound NOT metabolized | Compound NOT metabolized | Compound NOT metabolized | Compound NOT metabolized | Compound NOT metabolized | Compound NOT metabolized | Compound NOT metabolized | Compound NOT metabolized | Bacterial Biotransformation [21]: Compound NOT metabolized; Bacterial Biotransformation [22]: Compound metabolized; Bacterial Biotransformation [23]: Compound NOT metabolized; Bacterial Biotransformation [24]: Compound NOT metabolized; Bacterial Biotransformation [25]: Compound NOT metabolized; Bacterial Biotransformation [26]: Compound metabolized |
| CCCC1O[C@@H]2C[C@H]3[C@@H]4CCC5=CC(=O)C=C[C@]5(C)[C@H]4[C@@H](O)C[C@]3(C)[C@]2(C(=O)CO)O1 (stereo partly drawn) [BUDESONIDE] | Compound metabolized | Compound metabolized | Compound NOT metabolized | Compound metabolized | Compound NOT metabolized | Compound NOT metabolized | Compound NOT metabolized | Compound metabolized | Compound NOT metabolized | Compound NOT metabolized | Compound NOT metabolized | Compound NOT metabolized | Compound NOT metabolized | Compound NOT metabolized | Compound NOT metabolized | Compound NOT metabolized | Compound NOT metabolized | Compound NOT metabolized | Compound NOT metabolized | Compound NOT metabolized | Bacterial Biotransformation [21]: Compound NOT metabolized; Bacterial Biotransformation [22]: Compound metabolized; Bacterial Biotransformation [23]: Compound NOT metabolized; Bacterial Biotransformation [24]: Compound NOT metabolized; Bacterial Biotransformation [25]: Compound NOT metabolized; Bacterial Biotransformation [26]: Compound NOT metabolized |
| C[C@]12CCC(=O)C=C1CC[C@@H]1[C@@H]2C(=O)C[C@@]2(C)[C@H]1CC[C@]2(O)C(=O)CO [CORTISONE] | Compound metabolized | Compound metabolized | Compound metabolized | Compound metabolized | Compound metabolized | Compound NOT metabolized | Compound NOT metabolized | Compound metabolized | Compound NOT metabolized | Compound NOT metabolized | Compound NOT metabolized | Compound NOT metabolized | Compound NOT metabolized | Compound NOT metabolized | Compound NOT metabolized | Compound NOT metabolized | Compound NOT metabolized | Compound NOT metabolized | Compound NOT metabolized | Compound NOT metabolized | Bacterial Biotransformation [21]: Compound NOT metabolized; Bacterial Biotransformation [22]: Compound metabolized; Bacterial Biotransformation [23]: Compound NOT metabolized; Bacterial Biotransformation [24]: Compound metabolized; Bacterial Biotransformation [25]: Compound NOT metabolized; Bacterial Biotransformation [26]: Compound metabolized |
